Test results: PubChem BioAssay (NCI)
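Protocol summary: plate cells (96-well), add compound at 5 concentrations, incubate 48 h, interpolate endpoints linearly. TGI marks complete inhibition of growth.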

Legend:
Assay in all cases: NCI tumour cell line growth inhibition, 48 h
UACC-257 melanoma = test system: UACC-257 melanoma
NCI/ADR-RES ovarian = test system: NCI/ADR-RES ovarian
SR leukemia = test system: SR leukemia
COLO 205 colon = test system: COLO 205 colon
SF-539 CNS = test system: SF-539 CNS
OVCAR-8 ovarian = test system: OVCAR-8 ovarian
T-47D breast = test system: T-47D breast
ACHN renal = test system: ACHN renal
EKVX NSCLC = test system: EKVX NSCLC
IGROV1 ovarian = test system: IGROV1 ovarian
OVCAR-5 ovarian = test system: OVCAR-5 ovarian
HOP-62 NSCLC = test system: HOP-62 NSCLC
MDA-N = test system: MDA-N
786-0 renal = test system: 786-0 renal
MOLT-4 leukemia = test system: MOLT-4 leukemia
SK-MEL-28 melanoma = test system: SK-MEL-28 melanoma
SW-620 colon = test system: SW-620 colon
OVCAR-3 ovarian = test system: OVCAR-3 ovarian
NCI-H522 lung = test system: NCI-H522 lung
SF-268 CNS = test system: SF-268 CNS
KM12 colon = test system: KM12 colon
PC-3 prostate = test system: PC-3 prostate
SK-MEL-5 melanoma = test system: SK-MEL-5 melanoma
HT29 colon = test system: HT29 colon
HL-60(TB) leukemia = test system: HL-60(TB) leukemia
U251 CNS = test system: U251 CNS
K-562 leukemia = test system: K-562 leukemia
SF-295 CNS = test system: SF-295 CNS
A498 renal = test system: A498 renal
TK-10 renal = test system: TK-10 renal
OVCAR-4 ovarian = test system: OVCAR-4 ovarian
A549 NSCLC = test system: A549 NSCLC
LOX IMVI melanoma = test system: LOX IMVI melanoma
SK-OV-3 ovarian = test system: SK-OV-3 ovarian
CCRF-CEM leukemia = test system: CCRF-CEM leukemia
MDA-MB-435 = test system: MDA-MB-435
HS 578T breast = test system: HS 578T breast
NCI-H23 lung = test system: NCI-H23 lung
NCI-H226 lung = test system: NCI-H226 lung
SN12C renal = test system: SN12C renal
UO-31 renal = test system: UO-31 renal
SK-MEL-2 melanoma = test system: SK-MEL-2 melanoma
M14 melanoma = test system: M14 melanoma
MALME-3M melanoma = test system: MALME-3M melanoma
SNB-19 CNS = test system: SNB-19 CNS
BT-549 breast = test system: BT-549 breast
MCF7 breast = test system: MCF7 breast
RPMI-8226 leukemia = test system: RPMI-8226 leukemia
MDA-MB-231 breast = test system: MDA-MB-231 breast
HOP-92 NSCLC = test system: HOP-92 NSCLC
UACC-62 melanoma = test system: UACC-62 melanoma
CAKI-1 renal = test system: CAKI-1 renal
HCT-116 colon = test system: HCT-116 colon
DU-145 prostate = test system: DU-145 prostate
HCT-15 colon = test system: HCT-15 colon
HCC-2998 colon = test system: HCC-2998 colon
NCI-H460 lung = test system: NCI-H460 lung
SNB-75 CNS = test system: SNB-75 CNS
RXF 393 renal = test system: RXF 393 renal

## CCOc1cc(C(c2c(O)c3ccccc3oc2=O)c2c(O)c3ccccc3oc2=O)ccc1OC
UACC-257 melanoma
  TGI: 34.6 µM
NCI/ADR-RES ovarian
  TGI: 73.3 µM
SR leukemia
  TGI: > 100 µM
COLO 205 colon
  TGI: 36.4 µM
SF-539 CNS
  TGI: 42.6 µM
OVCAR-8 ovarian
  TGI: 42.4 µM
T-47D breast
  TGI: 38.3 µM
ACHN renal
  TGI: 31.9 µM
EKVX NSCLC
  TGI: 44.3 µM
IGROV1 ovarian
  TGI: 32.7 µM
OVCAR-5 ovarian
  TGI: 40.1 µM
HOP-62 NSCLC
  TGI: 39.9 µM
MDA-N
  TGI: 36.6 µM
786-0 renal
  TGI: 40.1 µM
MOLT-4 leukemia
  TGI: 98.9 µM
SK-MEL-28 melanoma
  TGI: 72.2 µM
SW-620 colon
  TGI: > 100 µM
OVCAR-3 ovarian
  TGI: 33.3 µM
NCI-H522 lung
  TGI: 36.3 µM
SF-268 CNS
  TGI: 38.8 µM
KM12 colon
  TGI: 36.5 µM
PC-3 prostate
  TGI: 33.3 µM
SK-MEL-5 melanoma
  TGI: 44.6 µM
HT29 colon
  TGI: 65.9 µM
HL-60(TB) leukemia
  TGI: 52.4 µM
U251 CNS
  TGI: 29.5 µM
K-562 leukemia
  TGI: > 100 µM
SF-295 CNS
  TGI: 41.7 µM
A498 renal
  TGI: 38.9 µM
TK-10 renal
  TGI: 32.1 µM
OVCAR-4 ovarian
  TGI: 34.1 µM
A549 NSCLC
  TGI: > 100 µM
LOX IMVI melanoma
  TGI: 45.8 µM
SK-OV-3 ovarian
  TGI: 32.9 µM
CCRF-CEM leukemia
  TGI: > 100 µM
MDA-MB-435
  TGI: 32 µM
HS 578T breast
  TGI: 77.5 µM
NCI-H23 lung
  TGI: 52.6 µM
NCI-H226 lung
  TGI: 59.1 µM
SN12C renal
  TGI: 40.3 µM
UO-31 renal
  TGI: 45.8 µM
SK-MEL-2 melanoma
  TGI: 42.2 µM
M14 melanoma
  TGI: 38.9 µM
MALME-3M melanoma
  TGI: 34.8 µM
SNB-19 CNS
  TGI: 61.8 µM
BT-549 breast
  TGI: 41.4 µM
MCF7 breast
  TGI: 43.7 µM
RPMI-8226 leukemia
  TGI: 89.9 µM
MDA-MB-231 breast
  TGI: 31.9 µM
HOP-92 NSCLC
  TGI: 32.8 µM
UACC-62 melanoma
  TGI: 33.2 µM
CAKI-1 renal
  TGI: 30.5 µM
HCT-116 colon
  TGI: 37.9 µM
DU-145 prostate
  TGI: 37.6 µM
HCT-15 colon
  TGI: 47.6 µM

## O=P(O)(O)OC1OC(CO)C(O)C(O)C1O (centres undefined)
UACC-257 melanoma
  TGI: > 100 µM
NCI/ADR-RES ovarian
  TGI: > 100 µM
SR leukemia
  TGI: > 100 µM
OVCAR-8 ovarian
  TGI: > 100 µM
T-47D breast
  TGI: > 100 µM
ACHN renal
  TGI: > 100 µM
EKVX NSCLC
  TGI: > 100 µM
IGROV1 ovarian
  TGI: > 100 µM
OVCAR-5 ovarian
  TGI: > 100 µM
HOP-62 NSCLC
  TGI: > 100 µM
MDA-N
  TGI: > 100 µM
786-0 renal
  TGI: > 100 µM
SK-MEL-28 melanoma
  TGI: > 100 µM
SW-620 colon
  TGI: > 100 µM
OVCAR-3 ovarian
  TGI: > 100 µM
NCI-H522 lung
  TGI: > 100 µM
SF-268 CNS
  TGI: > 100 µM
KM12 colon
  TGI: > 100 µM
SK-MEL-5 melanoma
  TGI: > 100 µM
HT29 colon
  TGI: > 100 µM
HCC-2998 colon
  TGI: > 100 µM
HL-60(TB) leukemia
  TGI: > 100 µM
U251 CNS
  TGI: > 100 µM
K-562 leukemia
  TGI: > 100 µM
NCI-H460 lung
  TGI: > 100 µM
SF-295 CNS
  TGI: > 100 µM
A498 renal
  TGI: > 100 µM
TK-10 renal
  TGI: > 100 µM
OVCAR-4 ovarian
  TGI: > 100 µM
A549 NSCLC
  TGI: > 100 µM
LOX IMVI melanoma
  TGI: > 100 µM
SK-OV-3 ovarian
  TGI: > 100 µM
CCRF-CEM leukemia
  TGI: > 100 µM
MDA-MB-435
  TGI: > 100 µM
HS 578T breast
  TGI: > 100 µM
NCI-H23 lung
  TGI: > 100 µM
SN12C renal
  TGI: > 100 µM
UO-31 renal
  TGI: > 100 µM
SK-MEL-2 melanoma
  TGI: > 100 µM
M14 melanoma
  TGI: > 100 µM
MALME-3M melanoma
  TGI: > 100 µM
SNB-19 CNS
  TGI: > 100 µM
BT-549 breast
  TGI: > 100 µM
MCF7 breast
  TGI: > 100 µM
SNB-75 CNS
  TGI: > 100 µM
RPMI-8226 leukemia
  TGI: > 100 µM
MDA-MB-231 breast
  TGI: > 100 µM
HOP-92 NSCLC
  TGI: > 100 µM
UACC-62 melanoma
  TGI: > 100 µM
CAKI-1 renal
  TGI: > 100 µM
HCT-116 colon
  TGI: > 100 µM
DU-145 prostate
  TGI: > 100 µM
RXF 393 renal
  TGI: > 100 µM
HCT-15 colon
  TGI: > 100 µM
